Read-outs that look alike come from different tables or passages of the source. *: point of attachment. Biotin = O=C1N[C@H]2[C@H](CS[C@H]2CCCCC(=O)*)N1

The target of assay [1] is T1, soluble ectodomain of sortilin-6his (Homo sapiens, UniProt Q99523, V650M).
T1 construct: the soluble ectodomain of sortilin-6his is measured by microscale thermophoresis (MST)
Nature of the assay: MST binding to soluble ectodomain of sortilin-6his.

Assay [2] deals with HEK293 cells expressing full length sortilin receptor. The assay can be described thus: Cellular uptake of AlexaFluor488-anti-DNP antibody. It counts as cell-based. The note with it: for cell associated FI signal, response to concentration series (in words): 3 h incubation, 1.9 nM to 2 μM, AlexaFluor488-anti-DNP antibody 100 nM; for AUC score, target internalization: Table 7, AlexaFluor488-anti-DNP antibody (100 nM), 3 h, DNP warhead compounds. The source says: In this example, the small molecule degraders consist of a sortilin binder linked to warhead DNP to target anti-DNP antibodies (BF001 to BF016)
Cellular uptake of AlexaFluor488-anti-DNP antibody (Thermo Fisher) was investigated in HEK293 cells expressing full length sortilin receptor in a methodology analogous to example 3.

For assay [3] the test system is unchanged. The assay can be described thus: Cellular uptake of NA650 in HEK293/sortilin cells. It counts as cell-based. The note with it: for IC50: SEQ ID NO.: 147 (300 nM) and NA650 (100 nM), 3 h incubation, competitor titrated, read-out: IC50 of inhibition of degrader induced internalization of NA650; for AUC score, target internalization: Table 6, NA650 (100 nM), 3 h, biotin warhead compounds. Here is the method:
Cellular uptake of NA650 was investigated in HEK293 cells expressing full length sortilin receptor (Petersen et. al.). Cells were seeded in poly-L-lysine coated 96-well plates (Perkin Elmer) (40K/well) in 50 μL culture medium (DMEM (Lonza)+10% FBS (SigmaAldrich)+1% penicillin-streptomycin (SigmaAldrich)+1% GlutaMAX (Gibco)+100 μg/mL Zeocin (Invitrogen)) and incubated overnight in cell incubator (37° C., humidified, 5% CO2).
Culture medium was replaced with assay medium (DMEM (Lonza)+10% fetal bovine serum (SigmaAldrich)+1% penicillin-streptomycin (SigmaAldrich)+1% GlutaMAX (Gibco)) containing NA650 (Invitrogen) (100 nM) (Thermo Fischer) and peptidic bifunctional compounds (9.8 nM to 10 μM). Cells were incubated for 3 h in cell incubator before they were washed in dPBS (Bionordika). The DyLight650 signal in the cell layer was detected using a fluorescence plate reader (BMG Labtech Clariostar).
Cellular uptake of NA650 was investigated in HEK293 cells expressing full length sortilin receptor using a methodology analogous to example 3.

For assay [4], the target named is T2, Sortilin-6His (Homo sapiens (Human), UniProt Q99523 78-755).
T2 construct: In MST it was labelled non-covalently with RED-tris-NTA; also called soluble ectodomain of sortilin-6his; fluorescent sortilin-6his
The assay can be described thus: MST on labelled sortilin-6his ectodomain; KD score: ++ <100 nM, + 100-2000 nM.

The target in assay [5] is T2, Sortilin-6His. The assay can be described thus: TR-FRET (HTRF) ternary complex streptavidin-d2 / biotin-peptide / sortilin-6His; AUC score: + <5000, ++ >5000.
Setting [6] is: Table 4, small molecule bifunctional compounds, MST, read-out: KD score, binding to sortilin (Kd).

T1 sequence (Q99523 with tags, fused parts or gaps V650M): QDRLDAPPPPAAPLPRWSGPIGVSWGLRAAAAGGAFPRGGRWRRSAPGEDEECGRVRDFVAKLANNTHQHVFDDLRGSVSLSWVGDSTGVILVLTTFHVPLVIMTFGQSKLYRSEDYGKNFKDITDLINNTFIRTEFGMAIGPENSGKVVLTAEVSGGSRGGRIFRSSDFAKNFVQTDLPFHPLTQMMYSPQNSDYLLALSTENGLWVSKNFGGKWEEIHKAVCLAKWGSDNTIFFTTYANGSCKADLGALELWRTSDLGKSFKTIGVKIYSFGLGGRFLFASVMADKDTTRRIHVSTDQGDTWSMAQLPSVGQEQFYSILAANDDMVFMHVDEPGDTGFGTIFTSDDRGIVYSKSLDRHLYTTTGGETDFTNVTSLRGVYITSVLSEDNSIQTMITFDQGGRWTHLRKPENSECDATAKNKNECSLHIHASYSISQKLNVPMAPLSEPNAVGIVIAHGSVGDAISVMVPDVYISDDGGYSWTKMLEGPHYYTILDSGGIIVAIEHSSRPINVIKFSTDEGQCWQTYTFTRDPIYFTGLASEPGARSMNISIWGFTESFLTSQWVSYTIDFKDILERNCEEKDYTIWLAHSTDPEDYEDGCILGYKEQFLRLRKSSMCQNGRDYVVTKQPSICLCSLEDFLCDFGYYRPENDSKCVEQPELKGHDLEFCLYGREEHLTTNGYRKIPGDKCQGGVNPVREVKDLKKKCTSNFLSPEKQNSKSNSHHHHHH
T2 sequence (Q99523 78-755 V650M limits assumed): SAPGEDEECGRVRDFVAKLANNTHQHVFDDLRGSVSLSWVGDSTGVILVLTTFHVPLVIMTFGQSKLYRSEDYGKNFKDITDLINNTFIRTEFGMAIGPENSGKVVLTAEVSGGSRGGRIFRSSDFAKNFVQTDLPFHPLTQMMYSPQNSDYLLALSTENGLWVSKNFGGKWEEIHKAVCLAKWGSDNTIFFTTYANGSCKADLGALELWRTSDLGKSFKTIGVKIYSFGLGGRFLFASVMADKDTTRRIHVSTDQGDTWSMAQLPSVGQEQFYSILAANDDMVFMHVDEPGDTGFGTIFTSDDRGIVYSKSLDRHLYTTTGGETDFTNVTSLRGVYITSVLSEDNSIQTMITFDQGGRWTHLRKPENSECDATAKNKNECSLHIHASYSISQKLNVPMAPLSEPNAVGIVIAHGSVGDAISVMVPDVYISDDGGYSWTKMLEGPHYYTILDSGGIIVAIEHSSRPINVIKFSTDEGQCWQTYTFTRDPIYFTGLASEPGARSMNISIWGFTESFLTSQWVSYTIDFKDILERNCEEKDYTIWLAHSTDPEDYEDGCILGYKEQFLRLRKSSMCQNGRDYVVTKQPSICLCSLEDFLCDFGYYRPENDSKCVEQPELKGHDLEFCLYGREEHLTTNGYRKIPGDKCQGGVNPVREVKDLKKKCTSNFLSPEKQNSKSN

Regarding `CC(C)(C)CC[C@H](NC(=O)c1ccc(Oc2cccc(C(=O)NCCOCCOCCOCCOCCOCCOCCOCCNc3ccc([N+](=O)[O-])cc3[N+](=O)[O-])c2)nc1)C(=O)O` [BF006, (2S)-2-[[6-[3-[2-[2-[2-[2-[2-[2-[2-[2-(2,4-dinitroanilino)ethoxy]ethoxy]ethoxy]ethoxy]ethoxy]ethoxy]ethoxy]ethylcarbamoyl]phenoxy]pyridine-3-carbonyl]amino]-5,5-dimethyl-hexanoic acid], the equilibrium dissociation constant (Kd) in assay [1] was in the range of 1 to 10 nM. In addition, in assay [2], the “cell associated FI signal, response to concentration series (in words)” value was “bell-shaped response” and the “AUC score, target internalization” value was “+ (AUC < 10.000)”.
For the molecule `CC(C)(C)CC[C@H](NC(=O)c1ccc(Oc2cccc(C(=O)NCCOCCOCCOCCOCCOCCNc3ccc([N+](=O)[O-])cc3[N+](=O)[O-])c2)nc1)C(=O)O` [BF011, (2S)-2-[[6-[3-[2-[2-[2-[2-[2-[2-(2,4-dinitroanilino)ethoxy]ethoxy]ethoxy]ethoxy]ethoxy]ethylcarbamoyl]phenoxy]pyridine-3-carbonyl]amino]-5,5-dimethyl-hexanoic acid], in assay [2], the “cell associated FI signal, response to concentration series (in words)” value was “bell-shaped response” and the “AUC score, target internalization” value is “+ (AUC < 10.000)”.
For `O=C(O)CCCC[C@@H]1SC[C@@H]2NC(=O)N[C@@H]21` [biotin, reference compound], the IC50 in assay [3] (Homo sapiens, HEK293) amounted to 56 nM.
Take `CC(C)(C)CC[C@H](NC(=O)c1ccc(Oc2cccc(C(=O)NCCOCCOCCOCCOCCOCCOCCNc3ccc([N+](=O)[O-])cc3[N+](=O)[O-])c2)nc1)C(=O)O` [BF008, (2S)-2-[[6-[3-[2-[2-[2-[2-[2-[2-[2-(2,4-dinitroanilino)ethoxy]ethoxy]ethoxy]ethoxy]ethoxy]ethoxy]ethylcarbamoyl]phenoxy]pyridine-3-carbonyl]amino]-5,5-dimethyl-hexanoic acid]: in assay [1], the Kd was in the range of 1 to 10 nM. Also, the “AUC score, target internalization” value in assay [2] is “+ (AUC < 10.000)”.
Regarding `Cc1cccc(NC(=O)c2ccc(C(F)(F)F)cc2C(=O)O)n1` [AF38469, reference compound], the IC50 in assay [3] is 589 nM.
In the case of `CC(C)(C)CC[C@H](NC(=O)c1ccc(Oc2cccc3c(C(=O)NCCCNC(=O)CCOCCOCCOCCOCCOCCNC(=O)CCCC[C@@H]4SC[C@@H]5NC(=O)N[C@@H]54)cccc23)nc1)C(=O)O` [BF028, (2S)-2-[[6-[[5-[3-[3-[2-[2-[2-[2-[2-[5-[(3aS,4S,6aR)-2-oxo-1,3,3a,4,6,6a-hexahydrothieno[3,4-d]imidazol-4-yl]pentanoylamino]ethoxy]ethoxy]ethoxy]ethoxy]ethoxy]propanoylamino]propylcarbamoyl]-1-naphthyl]oxy]pyridine-3-carbonyl]amino]-5,5-dimethyl-hexanoic acid], in assay [1] (setting [6]), the Kd is 10 to 250 nM. Also, the “AUC score, target internalization” value in assay [3] is given as “++ (AUC > 100)”.
Take `CC(C)(C)CC[C@H](NC(=O)c1ccc(Oc2cccc(OCCOCCOCCOCCOCCOCCOCCNc3ccc([N+](=O)[O-])cc3[N+](=O)[O-])c2)nc1)C(=O)O` [BF014, (2S)-2-[[6-[3-[2-[2-[2-[2-[2-[2-[2-(2,4-dinitroanilino)ethoxy]ethoxy]ethoxy]ethoxy]ethoxy]ethoxy]ethoxy]phenoxy]pyridine-3-carbonyl]amino]-5,5-dimethyl-hexanoic acid]: the equilibrium dissociation constant (Kd) in assay [1] is 10 to 250 nM. The “AUC score, target internalization” value in assay [2] was “++ (AUC > 10.000)”.
With `CC(C)(C)CC[C@H](NC(=O)c1ccc(Oc2cccc(OCCOCCOCCOCCOCCOCCNc3ccc([N+](=O)[O-])cc3[N+](=O)[O-])c2)nc1)C(=O)O` [BF004, (2S)-2-[[6-[3-[2-[2-[2-[2-[2-[2-(2,4-dinitroanilino)ethoxy]ethoxy]ethoxy]ethoxy]ethoxy]ethoxy]phenoxy]pyridine-3-carbonyl]amino]-5,5-dimethyl-hexanoic acid], the dissociation constant (Kd) in assay [1] lay within 1 to 10 nM. Also, the “AUC score, target internalization” value in assay [2] was “+ (AUC < 10.000)”.
Consider `CC(C)(C)CC[C@H](NC(=O)c1ccc(Oc2cccc3c(C(=O)NCCCNC(=O)CCOCCOCCOCCOCCNc4ccc([N+](=O)[O-])cc4[N+](=O)[O-])cccc23)nc1)C(=O)O` [BF010, (2S)-2-[[6-[[5-[3-[3-[2-[2-[2-[2-(2,4-dinitroanilino)ethoxy]ethoxy]ethoxy]ethoxy]propanoylamino]propylcarbamoyl]-1-naphthyl]oxy]pyridine-3-carbonyl]amino]-5,5-dimethyl-hexanoic acid], for which, in assay [1], the dissociation constant (Kd) is 1 to 10 nM. The “AUC score, target internalization” value in assay [2] was “++ (AUC > 10.000)”.
As to `CC(C)(C)CC[C@H](NC(=O)c1ccc(Oc2cccc(C(=O)NCCOCCOCCOCCOCCOCCOCCOCCOCCNC(=O)CCCC[C@@H]3SC[C@@H]4NC(=O)N[C@@H]43)c2)nc1)C(=O)O` [BF018, (2S)-2-[[6-[3-[2-[2-[2-[2-[2-[2-[2-[2-[2-[5-[(3aS,4S,6aR)-2-oxo-1,3,3a,4,6,6a-hexahydrothieno[3,4-d]imidazol-4-yl]pentanoylamino]ethoxy]ethoxy]ethoxy]ethoxy]ethoxy]ethoxy]ethoxy]ethoxy]ethylcarbamoyl]phenoxy]pyridine-3-carbonyl]amino]-5,5-dimethyl-hexanoic acid], the dissociation constant (Kd) in assay [1] (setting [6]) was in the range of 1 to 10 nM. The “AUC score, target internalization” value in assay [3] is given as “++ (AUC > 100)”.
On to `CC(C)(C)CC[C@H](NC(=O)c1ccc(Oc2cccc(OCCOCCOCCNC(=O)CCCC[C@@H]3SC[C@@H]4NC(=O)N[C@@H]43)c2)nc1)C(=O)O` [BF022, (S)-5,5-dimethyl-2-(6-(3-(2-(2-(2-(5-((3aS,4S,6aR)-2-oxohexahydro-1H-thieno[3,4-d]imidazol-4-yl)pentanamido)ethoxy)ethoxy)ethoxy)phenoxy)nicotinamido) hexanoic acid], for which the dissociation constant (Kd) in assay [1] (setting [6]) lay within 10 to 250 nM. The “AUC score, target internalization” value in assay [3] is on record as “+ (AUC < 100)”.
Consider `CC(C)(C)CC[C@H](NC(=O)c1ccc(Oc2cccc3cc(C(=O)NCCCNC(=O)CCCC[C@@H]4SC[C@@H]5NC(=O)N[C@@H]54)ccc23)nc1)C(=O)O` [BF024], for which the Kd in assay [1] (setting [6]) was 10 to 250 nM. Also, the “AUC score, target internalization” value in assay [3] is “+ (AUC < 100)”.

B1: Biotin-GGSGGGGSGRQLL-OH (peptide)
peptide: Biotin-GGSGGGGSGRQLL-OH
SMILES: CC(C)C[C@H](NC(=O)[C@H](CC(C)C)NC(=O)[C@H](CCC(N)=O)NC(=O)[C@H](CCCNC(=N)N)NC(=O)CNC(=O)[C@H](CO)NC(=O)CNC(=O)CNC(=O)CNC(=O)CNC(=O)[C@H](CO)NC(=O)CNC(=O)CNC(=O)CCCC[C@@H]1SC[C@@H]2NC(=O)N[C@@H]21)C(=O)O
As for B1, the equilibrium dissociation constant (KD) with Sortilin-6His [4] is under 100 nM. Also, in the assay with Sortilin-6His [5], the “AUC of TR-FRET (HTRF ratio vs compound concentration) for ternary complex formation” value is under 5000 auc.

B2: Biotin-GGSGGGGSGFQLL-OH (peptide)
peptide: Biotin-GGSGGGGSGFQLL-OH
SMILES: CC(C)C[C@H](NC(=O)[C@H](CC(C)C)NC(=O)[C@H](CCC(N)=O)NC(=O)[C@H](Cc1ccccc1)NC(=O)CNC(=O)[C@H](CO)NC(=O)CNC(=O)CNC(=O)CNC(=O)CNC(=O)[C@H](CO)NC(=O)CNC(=O)CNC(=O)CCCC[C@@H]1SC[C@@H]2NC(=O)N[C@@H]21)C(=O)O
Take B2: the KD with Sortilin-6His [4] was under 100 nM. Moreover, the “AUC of TR-FRET (HTRF ratio vs compound concentration) for ternary complex formation” value with Sortilin-6His [5] is under 5000 auc.

For the origin of these results see patent US20250345446A1 (Draupnir Bio ApS, priority 2022, published 2025).
